{
  "source": "patent US20250032585A1",
  "about": "“Effective Doses of CNP Conjugates” (Ascendis Pharma Growth Disorders A/S, priority 2021, published 2025)",
  "origin": "cited, not measured here",
  "key": {"NPR-B receptor": {"tested_on": "NPR-B receptor", "details": "pediatric patients with achondroplasia; increase from pre-dose baseline"}, "[1]": {"details": "in vivo, sc"}, "[2]": {"tested_on": "pediatric patients with achondroplasia"}},
  "data": [
    {"substance": "vosoritide", "values": [
      {"measurement": "time of maximum urinary cGMP level post-dose", "setting": "NPR-B receptor", "result": 2, "unit": "h"},
      {"measurement": "half-life", "setting": "[1]", "result": "21.0 to 27.9", "unit": "min"},
      {"measurement": "treatment difference in the change from baseline in annual growth velocity (AGV) compared to placebo", "setting": "[2]; after 52 weeks of treatment", "result": 1.57, "unit": "cm/year"},
      {"measurement": "subjects with decreased blood pressure", "setting": "[2]; human, in vivo", "result": 13, "unit": "%"},
      {"measurement": "subjects with symptomatic episode of decreased blood pressure with vomiting and/or dizziness", "setting": "[2]; human, in vivo", "result": 3, "unit": "%"}
    ]}
  ]
}
